In patent US12180187B2, “1-phenyl-5-azinylpyrazolyl-3-oxyalkyl acids and their use for controlling unwanted plant growth” (BAYER AKTIENGESELLSCHAFT, priority 2019, dated 2024):

Experiments:
POLCO = assay: Pre-emergence action at 320 g/ha against POLCO; format: in vivo, Fallopia convolvulus (Polygonum convolvulus); conditions: visual scoring after about 3 weeks vs untreated controls
Method in brief: (§1)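 Application: aqueous WP or EC with 0.5% additive on soil covering seeds, 600 l/ha. Read-out: visual percent damage after ~3 weeks in greenhouse, untreated pots as reference.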

DIGSA = assay: Pre-emergence action at 320 g/ha against DIGSA; format: in vivo, Digitaria sanguinalis; conditions: visual scoring after about 3 weeks vs untreated controls
Method in brief: as §1

ECHCG = assay: Pre-emergence action against ECHCG, 1280 g/ha; format: in vivo, Echinochloa crus-galli; conditions: visual scoring after about 3 weeks vs untreated controls, 100% = plants have died, 0% = like control plants
Method in brief: (§2)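 Soil-surface application after sowing, before emergence: WP or EC formulations in water with 0.5% additive, 600 litres per hectare, onto sandy loam pots. Damage rated visually in % relative to untreated plants after roughly 3 weeks in a greenhouse.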

PHBPU = assay: Post-emergence action at 320 g/ha against PHBPU; format: in vivo; conditions: visual rating about 3 weeks after treatment vs untreated controls
Method in brief: (§3)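 Herbicidal effect is scored by eye about 3 weeks after a foliar spray and expressed as percent activity, with untreated plants as 0% and dead plants as 100%. Treatment is applied at the one-leaf stage of greenhouse-grown, soil-sown plants, at a water rate of 600 l/ha containing 0.5% additive.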

SETVI [1] = assay: Pre-emergence action against SETVI, 1280 g/ha; format: in vivo, Setaria viridis; conditions: visual scoring after about 3 weeks vs untreated controls, 100% = plants have died, 0% = like control plants
Method in brief: as §2

SETVI [2] = assay: Pre-emergence action at 320 g/ha against SETVI; format: in vivo, Setaria viridis; conditions: visual scoring after about 3 weeks vs untreated controls
Method in brief: as §1

POAAN [3] = assay: Post-emergence action against POAAN, 1.28 kg/ha; format: in vivo, Poa annua; conditions: dosage 1280 g/ha, visual rating about 3 weeks after treatment vs untreated controls
Method in brief: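 Spray at one-leaf stage with WP/EC + 0.5% additive, 600 L water/ha. Greenhouse, optimum conditions, ~3 wk. Visual % control vs untreated; 0 = no effect, 100 = dead.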

POAAN [4] = assay: Pre-emergence action against POAAN, 1280 g/ha; format: in vivo, Poa annua; conditions: visual scoring after about 3 weeks vs untreated controls, 100% = plants have died, 0% = like control plants
Method in brief: as §2

AMARE [5] = assay: Pre-emergence action at 320 g/ha against AMARE; format: in vivo, Amaranthus retroflexus; conditions: visual scoring after about 3 weeks vs untreated controls
Method in brief: as §1

STEME = assay: Pre-emergence action against STEME, 1280 g/ha; format: in vivo, Stellaria media; conditions: scored visually after about 3 weeks vs untreated controls (100% = plants have died)
Method in brief: as §2

MATIN = assay: Pre-emergence action against MATIN, 1280 g/ha; format: in vivo, Tripleurospermum inodorum (Matricaria inodora); conditions: scored visually after about 3 weeks vs untreated controls (100% = plants have died)
Method in brief: as §2

ALOMY = assay: Pre-emergence action at 320 g/ha against ALOMY; format: in vivo, Alopecurus myosuroides; conditions: scored visually after about 3 weeks vs untreated controls (100% = plants have died)
Method in brief: as §1

ABUTH = assay: Pre-emergence action against ABUTH, 1280 g/ha; format: in vivo, Abutilon theophrasti; conditions: scored visually after about 3 weeks vs untreated controls (100% = plants have died)
Method in brief: as §2

AMARE [6] = assay: Pre-emergence action against AMARE, 1280 g/ha; format: in vivo, Amaranthus retroflexus; conditions: scored visually after about 3 weeks vs untreated controls (100% = plants have died)
Method in brief: as §2

SETVI [7] = assay: Post-emergence action at 320 g/ha against SETVI; format: in vivo, Setaria viridis; conditions: visual rating about 3 weeks after treatment vs untreated controls
Method in brief: as §3

Structure (SMILES) | Pre-emergence action against POLCO in % (POLCO) | Pre-emergence action against DIGSA in % (DIGSA) | Pre-emergence action against ECHCG (ECHCG) | Post-emergence action against PHBPU in % (PHBPU) | Pre-emergence action against SETVI (SETVI [1]) | Pre-emergence action against SETVI in % (SETVI [2]) | Post-emergence action against POAAN (POAAN [3]) | Pre-emergence action against POAAN (POAAN [4]) | Pre-emergence action against AMARE in % (AMARE [5]) | Pre-emergence action against STEME (STEME) | Pre-emergence action against MATIN (MATIN) | Pre-emergence action at 320 g/ha against ALOMY in % (ALOMY) | Pre-emergence action against ABUTH (ABUTH) | Pre-emergence action against AMARE (AMARE [6]) | Post-emergence action against SETVI in % (SETVI [7])
O=C(O)COc1nn(-c2ccccc2F)c(-c2cncc(F)c2)c1Br [VII-025] | 100% | 100% | 100% | 90% | 100% | 100% | 100% | 100% | 100% | 100% | 100% | 100% | 90% | 100% | 100%
CCOC(=O)COc1nn(-c2ccccc2F)c(-c2cncc(F)c2)c1Br [VII-015] | 100% | 100% | 100% | 90% | 100% | 100% | 100% | 100% | 100% | 100% | 100% | 100% | 90% | 100% | 100%
COC(=O)[C@@H](C)Oc1nn(-c2ccccc2)c(-c2cccnc2)c1Br [VII-008] | 100% | 90% | 100% | 80% | 100% | 100% | 100% | 100% | 100% | 100% | 100% | 100% | 90% | 100% | 100%
COC(=O)[C@@H](C)Oc1nn(-c2ccccc2)c(-c2cncnc2)c1Br [VI-013] | 90% | 100% | 100% | 80% | 100% | 100% | 100% | 100% | 90% | 100% | 90% | 90% | 90% | 100% | 90%
CCOC(=O)COc1nn(-c2ccccc2F)c(-c2ccc(F)nc2)c1C(F)(F)F [VII-010] | 90% | 100% | 100% | 90% | 100% | 100% | 100% | 100% | 100% | 100% | 90% | 100% | 100% | 100% | 90%
COC(=O)COc1nn(-c2ccccc2F)c(-c2ccc(F)nc2)c1C(F)(F)F [VII-031] | 100% | 100% | 90% | 90% | 100% | 100% | 100% | 100% | 100% | 100% | 100% | 100% | 90% | 100% | 90%
CCOC(=O)COc1nn(-c2ccccc2F)c(-c2ccc(F)nc2)c1I [VII-036] | 100% | 100% | 100% | 80% | 100% | 100% | 100% | 100% | 100% | 100% | 100% | 100% | 90% | 100% | 90%
O=C(COc1nn(-c2ccccc2F)c(-c2ccc(F)nc2)c1Br)OCC1OCCO1 [VII-103] | 100% | 100% | 100% | 80% | 100% | 100% | 100% | 100% | 100% | 100% | 100% | 100% | 90% | 100% | 80%
CCOC(=O)COc1nn(-c2ccc(F)cc2F)c(-c2ccc(F)nc2)c1Cl [VII-016] | 90% | 100% | 100% | 90% | 100% | 100% | 100% | 100% | 100% | 100% | 90% | 100% | 100% | 100% | 80%
COC(=O)COc1nn(-c2ccccc2F)c(-c2cncc(F)c2)c1Br [VII-035] | 90% | 100% | 100% | 100% | 100% | 100% | 100% | 100% | 100% | 100% | 100% | 100% | 90% | 100% | 90%
CCOC(=O)C(C)Oc1nn(-c2ccccc2F)c(-c2ccc(F)nc2)c1Br (stereo not drawn) [VII-019] | 100% | 100% | 100% | 90% | 100% | 100% | 100% | 100% | 100% | 100% | 90% | 100% | 90% | 100% | 80%
